In ChEMBL document CHEMBL1667770, “Stereoselective first total synthesis, confirmation of the absolute configuration and bioevaluation of botryolide-E” (2011):
≈ marks a conversion by molar mass, not a printed value.

Tests used:
Type in all cases: functional
Klebsiella pneumoniae = assay: Antimicrobial activity against Klebsiella pneumoniae MTCC 39 after 24 hrs by broth dilution method; conditions: MTCC 39, 24 h
Candida albicans [1] = assay: Antimicrobial activity against Candida albicans MTCC 227 at 100 ug/ml after 24 to 96 hrs by agar cup method; conditions: read-out: IZ
Bacillus subtilis = assay: Antimicrobial activity against Bacillus subtilis MTCC 441 after 24 hrs by broth dilution method; conditions: MTCC 441, 24 h
Pseudomonas aeruginosa = assay: Antimicrobial activity against Pseudomonas aeruginosa MTCC 741 after 24 hrs by broth dilution method; conditions: MTCC 741, 24 h
Saccharomyces cerevisiae [2] = assay: Antimicrobial activity against Saccharomyces cerevisiae MTCC 171 at 100 ug/ml after 24 to 96 hrs by agar cup method; conditions: read-out: IZ
Staphylococcus aureus = assay: Antimicrobial activity against Staphylococcus aureus MTCC 96 after 24 hrs by broth dilution method; conditions: MTCC 96, 24 h
[3] = tested on: Staphylococcus epidermidis; assay: Antimicrobial activity against Staphylococcus epidermidis MTCC 437 after 24 hrs by broth dilution method; conditions: MTCC 437, 24 h
Aspergillus niger [4] = assay: Antimicrobial activity against Aspergillus niger MTCC 1344 at 100 ug/ml after 24 to 96 hrs by agar cup method; conditions: read-out: IZ
Escherichia coli = assay: Antimicrobial activity against Escherichia coli MTCC 443 after 24 hrs by broth dilution method; conditions: MTCC 443, 24 h
Rhizopus arrhizus [5] = assay: Antimicrobial activity against Rhizopus oryzae MTCC 262 at 100 ug/ml after 24 to 96 hrs by agar cup method; conditions: read-out: IZ
Rhizopus arrhizus [6] = assay: Antimicrobial activity against Rhizopus oryzae MTCC 262 at 30 ug/ml after 24 to 96 hrs by agar cup method; conditions: read-out: IZ
Saccharomyces cerevisiae [7] = assay: Antimicrobial activity against Saccharomyces cerevisiae MTCC 171 at 30 ug/ml after 24 to 96 hrs by agar cup method; conditions: read-out: IZ
Candida albicans [8] = assay: Antimicrobial activity against Candida albicans MTCC 227 at 30 ug/ml after 24 to 96 hrs by agar cup method; conditions: read-out: IZ
Aspergillus niger [9] = assay: Antimicrobial activity against Aspergillus niger MTCC 1344 at 30 ug/ml after 24 to 96 hrs by agar cup method; conditions: read-out: IZ

SMILES | MIC (Klebsiella pneumoniae) | MIC (Bacillus subtilis) | MIC (Pseudomonas aeruginosa) | MIC (Staphylococcus aureus) | MIC [3] | MIC (Escherichia coli) | zone of inhibition at 100 µg/mL (Candida albicans [1]) | zone of inhibition at 100 µg/mL (Saccharomyces cerevisiae [2]) | zone of inhibition at 100 µg/mL (Aspergillus niger [4]) | zone of inhibition at 100 µg/mL (Rhizopus arrhizus [5]) | zone of inhibition at 30 µg/mL (Rhizopus arrhizus [6]) | zone of inhibition at 30 µg/mL (Saccharomyces cerevisiae [7]) | zone of inhibition at 30 µg/mL (Candida albicans [8]) | zone of inhibition at 30 µg/mL (Aspergillus niger [9])
CC(=O)O[C@H](C)C[C@H](O)[C@@H]1C=CC(=O)O1 [BOTRYOLIDE-E] | 50 µg/mL (≈ 233 µM) | 25 µg/mL (≈ 117 µM) | 50 µg/mL (≈ 233 µM) | 6.25 µg/mL (≈ 29.2 µM) | 50 µg/mL (≈ 233 µM) | 12.5 µg/mL (≈ 58.4 µM) | 12 mm | 8 mm | 10 mm | 14 mm | – | – | – | –
Clc1ccccc1C(c1ccccc1)(c1ccccc1)n1ccnc1 [CLOTRIMAZOLE] | – | – | – | – | – | – | – | – | – | – | 21 mm | 23 mm | 22 mm | 18 mm
O=C1CN(/N=C/c2ccc([N+](=O)[O-])o2)C(=O)N1 [NITROFURANTOIN] | 50 µg/mL (≈ 210 µM) | 100 µg/mL (≈ 420 µM) | 100 µg/mL (≈ 420 µM) | 50 µg/mL (≈ 210 µM) | 50 µg/mL (≈ 210 µM) | 25 µg/mL (≈ 105 µM) | – | – | – | – | – | – | – | –

Second part, led by results:

MIC (Klebsiella pneumoniae) | MIC (Bacillus subtilis) | MIC (Pseudomonas aeruginosa) | MIC (Staphylococcus aureus) | MIC [3] | MIC (Escherichia coli) | SMILES | zone of inhibition at 100 µg/mL (Candida albicans [1]) | zone of inhibition at 100 µg/mL (Saccharomyces cerevisiae [2]) | zone of inhibition at 100 µg/mL (Aspergillus niger [4]) | zone of inhibition at 100 µg/mL (Rhizopus arrhizus [5]) | zone of inhibition at 30 µg/mL (Rhizopus arrhizus [6]) | zone of inhibition at 30 µg/mL (Saccharomyces cerevisiae [7]) | zone of inhibition at 30 µg/mL (Candida albicans [8]) | zone of inhibition at 30 µg/mL (Aspergillus niger [9])
– | 1.56 µg/mL (≈ 4.67 µM) | – | 1.56 µg/mL (≈ 4.67 µM) | 1.56 µg/mL (≈ 4.67 µM) | – | CC1(C)S[C@@H]2[C@H](NC(=O)Cc3ccccc3)C(=O)N2[C@H]1C(=O)O [PENICILLIN G] | – | – | – | – | – | – | – | –
1.56 µg/mL (≈ 2.69 µM) | – | 1.56 µg/mL (≈ 2.69 µM) | – | – | 1.56 µg/mL (≈ 2.69 µM) | CN[C@@H]1[C@H](O[C@H]2[C@H](O[C@H]3[C@H](O)[C@@H](O)[C@H](N=C(N)N)[C@@H](O)[C@@H]3N=C(N)N)O[C@@H](C)[C@]2(O)C=O)O[C@@H](CO)[C@H](O)[C@H]1O [STREPTOMYCIN] | – | – | – | – | – | – | – | –
